One data set has as its target PSMA (Homo sapiens, UniProt Q04609). The data set is described as follows: PSMA competitive binding, PC-3 PIP cells with [125I]MIP-1095. The arrangement: expressed in transfected cells; host or cells: PC-3 PIP cells. As for the experimental part: In vitro binding assays were carried out to determine the PSMA binding affinity of various compounds. By incubating PSMA positive cells either with: 1). LNCaP with 0.2 nM [^68Ga]PSMA-11 or [^125I]MIP-1095, as the ligand, in the presence of 10 different concentrations of competing ligands; non-specific binding was defined with 20 μM 2-PMPA (2-(phosphonomethyl)pentanedioic acid); or 2). PC-3 PIP cells with [^125I]MIP-1095 (0.18 nM diluted in PBS) in presence of different concentration of test compounds ([…] diluted in PBS containing 0.1% bovine serum albumin). Nonspecific binding (NSB) was defined with 2 μM the known PSMA inhibitor, PSMA-617. After incubation at 37° C. for 1 h, the bound and free fractions were separated by vacuum filtration through GF/B filters using a Brandel M-24R cell harvester. The filters were washed twice with cold Tris-HCl buffer (50 mM, pH=7.4), and the radioactivity on the filters was counted in a gamma counter (Wizard^2, Perkin-Elmer) with 50% efficiency. The nonspecific bound was less than 10% of the total bound. Data were analyzed using GraphPad Prism 6.0 with a nonlinear regression algorithm to obtain the half maximal inhibitory concentration (IC50).
The binding affinities to PSMA of the test compounds were measured by a competitive binding assay using either LNCap or PC-3 PIP cells suspension and the known radiotracers known to have high affinity and specificity to PSMA, [^68Ga]PSMA-11 or [^125I]MIP-1095. The IC50 values of four iodinated compounds, three DOTA, DOTAG and DOTA(GA)2 related compounds and two known PSMA inhibitors are shown in Table 1. Complexes of compound 4 and natural Ga and natural Lu were also tested. […] After labeling with radioisotope they are expected to bind to the tumor tissues over expressing PSMA binding sites.

Another data set has as its system PIP tumor and PC3 tumor. The data set is described as follows: Biodistribution of 125I labeled compounds 17, 18, 26 and 27 in tumor bearing nude mice. The format is in vivo. The settings on record: for Biodistribution: Bladder* / Biodistribution: Stomach* / Biodistribution: large intestine* / Biodistribution: small intestine*: organ with content; for PIP/blood / PIP/muscle: ratio. Here is the method: Radioiodination and Purification: 100 μg of either precursor 13, 14, 22 or 23 were dissolved in 100 μL EtOH; 22 μL Na^125I (1033-1118 μCi in 0.1 N NaOH), 100 μL 1N HCl and 100 μL 3% H2O2 were added. After 15 minutes at room temperature, the reaction was stopped by adding 150 μL sat. NaHSO3. The reaction mixture was slowly added to 1.5 mL sat. NaHCO3. Vial was rinsed with 1000 μL EtOH and mixture was diluted further to 10 mL mL water. The active sample was transferred onto an activated C4 mini column. The mixture was pushed through, washed twice with 3 mL water and the product was eluted with 1 mL ACN. Added 100 μL DMSO. The mixture was concentrated to ˜100 μL and purified by HPLC (Agilent Eclipse XCD C18 150×4.6 mm, 5 μm; 4 mL/min, gradient (ACN and water; 0-1 min (20/80), 1-16 min (20/80-100/0), 16-16.5 min (100/0-20/80), 16.5-20 min 20/80) (collected every minute). The sample was blown to dryness under argon, re-dissolved in 500 μL CH2Cl2 and 1 mL TFA was added at room temperature. After 1 hr the solution was blown to dryness and activity taken into 1 mL EtOH (10 μL saturated ascorbic acid/EtOH was added). Isolated activities for [^125I]17, 18, 26, and 27 were 197, 189, 600 and 197 μCi respectively. A representative picture of HPLC profiles (FIG. 3) for radiolabeled protected (intermediate), cold standard and radioactive trace of final compound is shown for [^125I]26.
For iv injection 150 μL of labeled solution was diluted with saline to 3.75 mL. Mice were injected with 2˜3 μCi of [^125I]18, 27, 26, and 18 in 0.15 mL saline. Injected radioactivity was 2 to 3 μCi.
Biodistribution study of [^125I]18, 27, 26, and 18 in tumor bearing nude mice were evaluated for their ability to localization of PSMA positive tumor (Tables 5, 6, 7 and 8). It was observed that [^125I]26 and [^125I] […] These new agents are valuable for radionuclide therapy, when labeled with beta or alpha-emitting isotopes; but these agents will also be useful as diagnostic agents when labeled with gamma-emitting isotopes.

Where [1] appears, read: n = 3 (a: n = 2), read-out: IC50 *(PC-3 PIP cells and [125I]MIP-1095).

Read-outs that look alike come from different tables or passages of the source.

Chain of PSMA (Q04609 whole entry, species assumed): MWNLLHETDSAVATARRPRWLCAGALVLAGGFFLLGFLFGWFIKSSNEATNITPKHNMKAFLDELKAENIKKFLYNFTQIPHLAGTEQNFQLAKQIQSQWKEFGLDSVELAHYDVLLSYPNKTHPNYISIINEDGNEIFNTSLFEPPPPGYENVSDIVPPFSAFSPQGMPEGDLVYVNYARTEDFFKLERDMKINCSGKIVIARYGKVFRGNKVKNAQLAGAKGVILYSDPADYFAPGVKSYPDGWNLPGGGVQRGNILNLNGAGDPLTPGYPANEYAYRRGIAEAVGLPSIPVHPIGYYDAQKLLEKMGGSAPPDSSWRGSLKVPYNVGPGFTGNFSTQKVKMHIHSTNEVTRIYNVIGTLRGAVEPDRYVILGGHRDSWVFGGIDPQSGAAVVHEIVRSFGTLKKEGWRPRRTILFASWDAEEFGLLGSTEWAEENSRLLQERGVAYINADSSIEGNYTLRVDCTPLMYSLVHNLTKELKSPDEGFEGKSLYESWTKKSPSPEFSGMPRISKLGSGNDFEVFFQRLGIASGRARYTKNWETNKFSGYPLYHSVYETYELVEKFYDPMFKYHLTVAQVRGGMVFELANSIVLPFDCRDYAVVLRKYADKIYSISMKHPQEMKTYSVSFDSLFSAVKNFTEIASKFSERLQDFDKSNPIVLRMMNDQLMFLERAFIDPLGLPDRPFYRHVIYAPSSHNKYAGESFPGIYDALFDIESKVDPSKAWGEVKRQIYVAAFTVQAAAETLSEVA

Regarding `O=C(O)CC[C@H](NC(=O)N[C@@H](CCCCNC(=O)[C@H](Cc1ccccc1)NC(=O)[C@H](CCC(=O)O)NC(=O)c1ccc(I)cc1)C(=O)O)C(=O)O` [Compound 17, (((S)-1-Carboxy-5-((S)-2-((S)-4-carboxy-2-(4-iodobenzamido)butanamido)-3-phenylpropanamido)pentyl)carbamoyl)-L-glutamic acid], the IC50 on PSMA (setting [1]) came to 2.63 ± 0.13 nM.
Regarding `O=C(O)CC[C@H](NC(=O)N[C@@H](CCCCNC(=O)[C@H](Cc1ccccc1)NC(=O)[C@H](CCC(=O)O)NC(=O)[C@H](CCC(=O)O)NC(=O)c1ccc(I)cc1)C(=O)O)C(=O)O` [Compound 18, (((S)-1-Carboxy-5-((S)-2-((S)-4-carboxy-2-((S)-4-carboxy-2-(4-iodobenzamido)butanamido)butanamido)-3-phenylpropanamido)pentyl)carbamoyl)-L-glutamic acid], the IC50 at PSMA (setting [1]) is 1.99 ± 0.06 nM.
As to `O=C(O)CC[C@H](NC(=O)N[C@@H](CCCCNC(=O)[C@H](Cc1ccccc1)NC(=O)COc1ccc(C[C@H](NC(=O)[C@H](CCC(=O)O)NC(=O)c2ccc(I)cc2)C(=O)O)cc1)C(=O)O)C(=O)O` [Compound 26, (((S)-1-Carboxy-5-((S)-2-(2-(4-((S)-2-carboxy-2-((S)-4-carboxy-2-(4-iodobenzamido)butanamido)ethyl)phenoxy)acetamido)-3-phenylpropanamido)pentyl)carbamoyl)-L-glutamic acid], on PSMA (setting [1]), the IC50 turned out to be 4.74 ± 0.37 nM.
Same read-out and setting: to `O=C(O)CCC(C(=O)O)N1CCN(CC(=O)O)CCN(C(CCC(=O)N[C@@H](CCC(=O)O)C(=O)N[C@@H](CCC(=O)O)C(=O)N[C@@H](Cc2ccc(OCC(=O)N[C@@H](Cc3ccccc3)C(=O)NCCCC[C@H](NC(=O)N[C@@H](CCC(=O)O)C(=O)O)C(=O)O)cc2)C(=O)O)C(=O)O)CCN(CC(=O)O)CC1` (stereo partly drawn) [Compound 29, (((1S)-5-((2S)-2-(2-(4-((2S)-2-((2S)-2-((2S)-2-(4-(4,10-Bis(carboxymethyl)-7-(1,3-dicarboxypropyl)-1,4,7,10-tetraazacyclododecan-1-yl)-4-carboxybutanamido)-4-carboxybutanamido)-4-carboxybutanamido)-2-carboxyethyl)phenoxy)acetamido)-3-phenylpropanamido)-1-carboxypentyl)carbamoyl)-L-glutamic acid] belongs 22.6 ± 1.59 nM; to `O=C(O)CC[C@H](NC(=O)N[C@@H](CCCCNC(=O)[C@H](Cc1ccccc1)NC(=O)COc1ccc(C(=O)NCCCC[C@H](NC(=O)CNC(=O)CCC(C(=O)O)N2CCN(CC(=O)O)CCN(CC(=O)O)CCN(CC(=O)O)CC2)C(=O)O)cc1)C(=O)O)C(=O)O` (stereo partly drawn) [Compound 38, (((1S)-1-Carboxy-5-((2S)-2-(2-(4-(((5S)-5-carboxy-5-(2-(4-carboxy-4-(4,7,10-tris(carboxymethyl)-1,4,7,10-tetraazacyclododecan-1-yl)butanamido)acetamido)pentyl)carbamoyl)phenoxy)acetamido)-3-phenylpropanamido)pentyl)carbamoyl)-L-glutamic acid], 28.1 ± 0.85 nM.
The same measure, in the same setting: the same measure for `O=C(O)CCc1ccc(O)c(CN(CCN(CC(=O)O)Cc2cc(CCC(=O)NCCCCCC(=O)NCCCC[C@H](NC(=O)N[C@@H](CCC(=O)O)C(=O)O)C(=O)O)ccc2O)CC(=O)O)c1` [PSMA-11, Glu-NH—CO—NH-Lys-(Ahx)-(HBED-CC), reference compound]: 47.8 ± 3.16 nM.
As to `O=C(O)CC[C@H](NC(=O)N[C@@H](CCCCNC(=O)[C@H](Cc1ccccc1)NC(=O)COc1ccc(C[C@H](NC(=O)[C@H](CCC(=O)O)NC(=O)[C@H](CCC(=O)O)NC(=O)c2ccc([125I])cc2)C(=O)O)cc1)C(=O)O)C(=O)O` [[^125I]27], in the data set with PIP tumor and PC3 tumor (1 h), the “Biodistribution: Blood” value is given as 0.47 ± 0.07 % ID/g, the “Biodistribution: Bone” value was determined as 0.94 ± 0.21 % ID/g, the “Biodistribution: Heart” value turned out to be 2.60 ± 0.10 % ID/g and the “Biodistribution: Kidney” value stood at 127.77 ± 8.24 % ID/g. In addition, in the data set on PIP tumor and PC3 tumor (1 h), the “Biodistribution: Liver” value came out at 1.72 ± 0.11 % ID/g, the “Biodistribution: Lung” value is 3.53 ± 1.35 % ID/g, the “Biodistribution: Muscle” value came to 1.05 ± 0.07 % ID/g and the “Biodistribution: PC3 tumor” value was determined as 1.99 ± 0.17 % ID/g. Also, in the data set with PIP tumor and PC3 tumor (1 h), the “Biodistribution: PIP tumor” value worked out at 17.19 ± 3.74 % ID/g, the “Biodistribution: Pancreas” value is recorded as 1.32 ± 0.46 % ID/g, the “Biodistribution: Skin” value worked out at 2.68 ± 0.47 % ID/g and the “Biodistribution: Spleen” value is given as 12.25 ± 3.36 % ID/g. In addition, in the data set with PIP tumor and PC3 tumor (1 h), the “Biodistribution: gland” value amounted to 3.59 ± 1.03 % ID/g, the “Biodistribution: thyroid” value is given as 39.72 ± 12.95 % ID/g, the “Biodistribution: Bladder*” value came to 53.39 ± 19.82 % ID/g and the “Biodistribution: Stomach*” value is 0.55 ± 0.21 % ID/g. In the data set on PIP tumor and PC3 tumor (1 h), the “Biodistribution: large intestine*” value is listed as 1.13 ± 0.52 % ID/g, the “Biodistribution: small intestine*” value turned out to be 1.52 ± 0.45 % ID/g, the PIP/blood was found to be 36.90 ± 8.14 and the PIP/muscle was found to be 16.57 ± 4.28. In the data set with PIP tumor and PC3 tumor (4 h), the “Biodistribution: Blood” value was determined as 0.32 ± 0.12 % ID/g, the “Biodistribution: Bone” value was 0.56 ± 0.05 % ID/g, the “Biodistribution: Heart” value is given as 1.36 ± 0.33 % ID/g and the “Biodistribution: Kidney” value was 138.08 ± 31.03 % ID/g. Also, in the data set with PIP tumor and PC3 tumor (4 h), the “Biodistribution: Liver” value turned out to be 1.28 ± 0.63 % ID/g, the “Biodistribution: Lung” value is recorded as 1.86 ± 0.24 % ID/g, the “Biodistribution: Muscle” value is recorded as 0.69 ± 0.21 % ID/g and the “Biodistribution: PC3 tumor” value is on record as 1.67 ± 0.44 % ID/g. Besides, in the data set on PIP tumor and PC3 tumor (4 h), the “Biodistribution: PIP tumor” value came out at 17.36 ± 2.57 % ID/g, the “Biodistribution: Pancreas” value was found to be 1.07 ± 0.31 % ID/g, the “Biodistribution: Skin” value came to 2.03 ± 0.39 % ID/g and the “Biodistribution: Spleen” value was 13.16 ± 4.01 % ID/g. Moreover, in the data set with PIP tumor and PC3 tumor (4 h), the “Biodistribution: gland” value was found to be 3.57 ± 0.54 % ID/g, the “Biodistribution: thyroid” value came to 60.34 ± 22.28 % ID/g, the “Biodistribution: Bladder*” value stood at 38.17 ± 21.99 % ID/g and the “Biodistribution: Stomach*” value was found to be 0.96 ± 0.55 % ID/g. Moreover, in the data set on PIP tumor and PC3 tumor (4 h), the “Biodistribution: large intestine*” value worked out at 1.35 ± 0.48 % ID/g, the “Biodistribution: small intestine*” value is 0.83 ± 0.34 % ID/g, the PIP/blood was 58.93 ± 20.54 and the PIP/muscle was found to be 27.34 ± 10.28. Further, in the data set with PIP tumor and PC3 tumor (mouse, in vivo), the Liver uptakes entry is on record as “low”; the “Uptakes in PIP tumors, kidneys and spleen compared to [125I]17 and [125I]18” value is “higher uptakes”.
For the compound `O=C([O-])CN1CCN(C(CCC(=O)NCC(=O)N[C@@H](Cc2ccc(OCC(=O)N[C@@H](Cc3ccccc3)C(=O)NCCCC[C@H](NC(=O)N[C@@H](CCC(=O)O)C(=O)O)C(=O)O)cc2)C(=O)O)C(=O)[O-])CCN(CC(=O)[O-])CCN(C(CCC(=O)O)C(=O)O)CC1.[Ga+3]` (stereo partly drawn) [[^natGa]4, (4S,11S,15S)-4-benzyl-1-(4-((2S)-2-(2-(4-(4,10-bis(carboxymethyl)-7-(1,3-dicarboxypropyl)-1,4,7,10-tetraazacyclododecan-1-yl)-4-carboxylatebutanamido)acetamido)-2-carboxyethyl)phenoxy)-2,5,13-trioxo-3,6,12,14-tetraazaheptadecane-11,15,17-tricarboxylate gallium], at PSMA (setting [1]), the IC50 was determined as 22.2 ± 2.1 nM.
With `O=C(O)CC[C@H](NC(=O)N[C@@H](CCCCNC(=O)[C@H](Cc1ccccc1)NC(=O)COc1ccc(C[C@H](NC(=O)CNC(=O)CCC2C(=O)[O][Lu-4]345678[O]C(=O)CN9CC[N+]23CC[N+]4(CC[N+]5(CC9)C(CCC(=O)[OH+]6)C(=O)[O]7)CC(=O)[O]8)C(=O)O)cc1)C(=O)O)C(=O)O` (some centres unmarked) [[^natLu]4], at PSMA, the IC50 turned out to be 18.7 ± 0.3 nM.

These data come from patent US20220125959A1, “PROSTATE-SPECIFIC MEMBRANE ANTIGEN (PSMA) INHIBITORS AS DIAGNOSTIC AND RADIONUCLIDE THERAPEUTIC AGENTS” (FIVE ELEVEN PHARMA INC., priority 2019, published 2022).
